In paper PMC12434667 (Journal of Medicinal Chemistry, 2025):
≈ marks a conversion by molar mass, not a printed value. Each block holds one molecule with its values, some of them ahead of it.

How the values were obtained:
CDK6/CyclinD3 = CDK6/CyclinD3 (Homo sapiens, UniProt Q00534); experiment: Biochemical enzymatic inhibition assay; conditions: biochemical IC50 vs CDK2
CDK4/CyclinD3 = CDK4/CyclinD3 (Homo sapiens, UniProt P11802); experiment: Biochemical enzymatic inhibition assay; conditions: biochemical IC50 vs CDK2
[1] = test system: panel of nonmutant kinases; experiment: Kinomescan panel; format: binding; conditions: for kinases tested showing >90% inhibition versus control: 1 μM, panel of 403 nonmutant kinases; for kinomescan S(10) score: 1 uM, nonmutant kinases with % Ctrl <10 / nonmutant kinases tested
CDK1/cyclinB1 = CDK1/cyclinB1 (Homo sapiens, UniProt P06493); conditions: biochemical IC50 vs CDK2
CDK9/CyclinT1 = CDK9/CyclinT1 (Homo sapiens, UniProt P50750); experiment: Biochemical enzymatic inhibition assay; conditions: biochemical IC50 vs CDK2
MDR1 = MDR1 (Homo sapiens, UniProt P08183); experiment: MDCK-MDR1 efflux ratio; format: in vitro ADME; conditions: dog, MDCK-MDR1, pH 7.4
FaSSIF solubility = format: physicochemical; conditions: kinetic from dmso stock
[2] = MDCK passive permeability; format: in vitro ADME, canine; conditions: dog, pH 7.4
Microsomal stability [3] = format: in vitro ADME; conditions: human, liver microsomes
Microsomal stability [4] = format: in vitro ADME; conditions: rat, liver microsomes
CDK2 = CDK2 (Homo sapiens, UniProt P24941); experiment: 14-hr AlphaLISA of CDK2 degradation in MKN1 CCNE1amp cells; format: cell-based; conditions: read-out: MKN1 CDK2 DC50
LogD = format: physicochemical; conditions: 1-octanol/phosphate buffer, pH 7.4
Rat PK = format: in vivo; conditions: in vivo; for Vd / clearance / half-life: iv, 2 mg/kg; for bioavailability: oral, 10 mg/kg
CDK2/CRBN = CDK2/CRBN (Homo sapiens, UniProt P24941+Q96SW2); experiment: AlphaLisa ternary complex formation assay; format: binding; conditions: compound 28 used as 100% control
CYP3A4 = CYP3A4 (Homo sapiens, UniProt P08684); experiment: Cyp3A4 TDI; format: in vitro ADME
HCC1569 tumor xenograft = HCC1569 tumor xenograft efficacy; format: in vivo, mouse; conditions: 150 mg/kg PO BID, 28 days
[5] = CYP3A4 TDI (+NADPH), 30 min pre-incubation with NADPH
[6] = CYP3A4 TDI (-NADPH), 30 min pre-incubation without NADPH

Sequence of CDK2/CRBN (Q16531 whole entry): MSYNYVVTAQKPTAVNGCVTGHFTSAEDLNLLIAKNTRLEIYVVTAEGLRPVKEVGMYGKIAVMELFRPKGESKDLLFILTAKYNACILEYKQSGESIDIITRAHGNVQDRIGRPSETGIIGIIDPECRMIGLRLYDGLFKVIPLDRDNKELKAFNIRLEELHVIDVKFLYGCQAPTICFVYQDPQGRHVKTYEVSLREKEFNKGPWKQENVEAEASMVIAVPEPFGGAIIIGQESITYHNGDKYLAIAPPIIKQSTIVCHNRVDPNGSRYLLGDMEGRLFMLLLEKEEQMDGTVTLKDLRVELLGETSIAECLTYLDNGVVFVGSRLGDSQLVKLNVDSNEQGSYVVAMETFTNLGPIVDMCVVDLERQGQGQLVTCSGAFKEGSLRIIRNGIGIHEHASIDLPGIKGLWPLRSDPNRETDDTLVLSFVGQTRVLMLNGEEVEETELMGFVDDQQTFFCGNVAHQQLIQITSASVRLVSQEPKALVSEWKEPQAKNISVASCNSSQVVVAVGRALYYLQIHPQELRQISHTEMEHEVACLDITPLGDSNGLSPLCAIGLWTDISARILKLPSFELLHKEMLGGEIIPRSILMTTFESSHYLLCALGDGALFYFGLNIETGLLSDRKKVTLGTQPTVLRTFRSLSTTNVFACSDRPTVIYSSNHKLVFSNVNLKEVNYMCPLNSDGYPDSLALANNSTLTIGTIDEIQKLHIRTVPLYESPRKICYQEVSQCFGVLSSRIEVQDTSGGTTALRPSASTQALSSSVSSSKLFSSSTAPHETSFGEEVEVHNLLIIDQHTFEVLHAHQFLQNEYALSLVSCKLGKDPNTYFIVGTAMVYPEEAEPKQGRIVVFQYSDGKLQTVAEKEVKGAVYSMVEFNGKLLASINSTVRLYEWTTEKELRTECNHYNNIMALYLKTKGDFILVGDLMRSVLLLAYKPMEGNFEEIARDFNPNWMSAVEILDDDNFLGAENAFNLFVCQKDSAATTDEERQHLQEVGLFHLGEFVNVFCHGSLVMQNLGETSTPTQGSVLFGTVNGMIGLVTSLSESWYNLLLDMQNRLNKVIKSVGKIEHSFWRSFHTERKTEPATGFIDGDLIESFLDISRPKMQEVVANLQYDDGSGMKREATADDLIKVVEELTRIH
Sequence of CDK2/CRBN (Q96SW2 40-442): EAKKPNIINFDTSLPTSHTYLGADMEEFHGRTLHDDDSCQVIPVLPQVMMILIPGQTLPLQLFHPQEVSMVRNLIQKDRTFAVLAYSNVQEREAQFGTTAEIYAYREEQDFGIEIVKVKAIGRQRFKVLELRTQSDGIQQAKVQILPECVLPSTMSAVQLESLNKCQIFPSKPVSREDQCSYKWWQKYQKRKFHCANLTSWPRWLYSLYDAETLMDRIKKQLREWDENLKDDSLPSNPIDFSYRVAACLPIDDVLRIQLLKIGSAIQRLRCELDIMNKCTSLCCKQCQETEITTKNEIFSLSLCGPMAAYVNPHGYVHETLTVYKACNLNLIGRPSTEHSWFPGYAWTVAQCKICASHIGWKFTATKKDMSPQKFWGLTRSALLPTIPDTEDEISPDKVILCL
Sequence of CYP3A4 (P08684 whole entry): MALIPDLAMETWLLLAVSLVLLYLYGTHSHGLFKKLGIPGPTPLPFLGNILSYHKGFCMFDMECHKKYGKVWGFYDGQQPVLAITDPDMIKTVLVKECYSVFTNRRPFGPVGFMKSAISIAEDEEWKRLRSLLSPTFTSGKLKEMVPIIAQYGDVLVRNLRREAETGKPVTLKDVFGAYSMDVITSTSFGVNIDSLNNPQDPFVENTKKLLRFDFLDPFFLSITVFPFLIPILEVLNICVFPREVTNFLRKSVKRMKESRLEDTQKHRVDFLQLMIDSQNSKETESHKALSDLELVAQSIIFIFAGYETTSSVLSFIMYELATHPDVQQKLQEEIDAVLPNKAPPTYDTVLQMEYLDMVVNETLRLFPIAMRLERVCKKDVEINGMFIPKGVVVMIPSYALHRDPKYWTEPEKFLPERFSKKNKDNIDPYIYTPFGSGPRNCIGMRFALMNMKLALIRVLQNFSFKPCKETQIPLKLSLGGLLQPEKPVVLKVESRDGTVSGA
Sequence of MDR1 (P08183 whole entry, species assumed): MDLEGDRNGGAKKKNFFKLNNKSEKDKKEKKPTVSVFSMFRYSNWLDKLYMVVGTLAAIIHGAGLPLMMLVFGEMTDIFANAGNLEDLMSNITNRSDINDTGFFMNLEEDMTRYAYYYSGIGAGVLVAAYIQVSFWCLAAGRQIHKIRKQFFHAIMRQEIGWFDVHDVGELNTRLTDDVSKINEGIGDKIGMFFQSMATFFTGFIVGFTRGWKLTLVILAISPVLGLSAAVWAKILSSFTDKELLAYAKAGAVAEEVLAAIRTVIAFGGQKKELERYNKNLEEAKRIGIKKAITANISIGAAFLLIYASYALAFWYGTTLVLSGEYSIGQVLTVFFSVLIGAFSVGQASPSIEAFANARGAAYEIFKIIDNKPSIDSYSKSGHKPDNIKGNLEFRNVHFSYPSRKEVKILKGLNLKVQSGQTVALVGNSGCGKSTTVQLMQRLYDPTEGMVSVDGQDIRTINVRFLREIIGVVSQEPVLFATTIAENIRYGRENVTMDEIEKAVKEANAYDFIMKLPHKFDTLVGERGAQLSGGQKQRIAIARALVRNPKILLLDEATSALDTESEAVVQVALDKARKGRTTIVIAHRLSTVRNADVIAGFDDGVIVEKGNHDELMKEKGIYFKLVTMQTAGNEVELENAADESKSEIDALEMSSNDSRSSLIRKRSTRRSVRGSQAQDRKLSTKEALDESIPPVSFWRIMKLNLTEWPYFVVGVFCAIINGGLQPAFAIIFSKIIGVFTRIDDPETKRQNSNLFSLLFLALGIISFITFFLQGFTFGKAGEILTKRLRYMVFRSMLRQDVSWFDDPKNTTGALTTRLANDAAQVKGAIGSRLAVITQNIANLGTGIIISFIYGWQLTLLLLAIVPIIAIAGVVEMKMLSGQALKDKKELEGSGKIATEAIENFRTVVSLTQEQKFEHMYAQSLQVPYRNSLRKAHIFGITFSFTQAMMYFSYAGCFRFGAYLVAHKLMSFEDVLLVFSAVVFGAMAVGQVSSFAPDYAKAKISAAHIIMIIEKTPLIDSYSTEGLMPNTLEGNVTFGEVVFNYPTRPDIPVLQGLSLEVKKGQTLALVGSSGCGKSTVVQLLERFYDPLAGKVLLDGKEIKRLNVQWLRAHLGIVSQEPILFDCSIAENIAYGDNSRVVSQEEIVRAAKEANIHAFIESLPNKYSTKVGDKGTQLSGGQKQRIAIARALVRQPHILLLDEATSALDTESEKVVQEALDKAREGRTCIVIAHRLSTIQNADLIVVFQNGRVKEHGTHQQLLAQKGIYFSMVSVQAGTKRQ
Sequence of CDK1/cyclinB1 (P14635 whole entry): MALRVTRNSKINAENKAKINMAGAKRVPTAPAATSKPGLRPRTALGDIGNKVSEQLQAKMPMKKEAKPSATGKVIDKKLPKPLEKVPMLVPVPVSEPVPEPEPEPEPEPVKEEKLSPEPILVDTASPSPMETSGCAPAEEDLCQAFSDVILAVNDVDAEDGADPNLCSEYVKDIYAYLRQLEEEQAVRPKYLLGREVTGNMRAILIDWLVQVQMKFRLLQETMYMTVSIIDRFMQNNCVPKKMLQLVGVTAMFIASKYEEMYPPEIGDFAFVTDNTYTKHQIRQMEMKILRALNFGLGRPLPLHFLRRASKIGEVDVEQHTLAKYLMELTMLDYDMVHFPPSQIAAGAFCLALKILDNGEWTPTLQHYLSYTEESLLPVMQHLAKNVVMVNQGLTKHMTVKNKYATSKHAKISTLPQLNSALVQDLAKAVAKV
Sequence of CDK1/cyclinB1 (P06493 whole entry): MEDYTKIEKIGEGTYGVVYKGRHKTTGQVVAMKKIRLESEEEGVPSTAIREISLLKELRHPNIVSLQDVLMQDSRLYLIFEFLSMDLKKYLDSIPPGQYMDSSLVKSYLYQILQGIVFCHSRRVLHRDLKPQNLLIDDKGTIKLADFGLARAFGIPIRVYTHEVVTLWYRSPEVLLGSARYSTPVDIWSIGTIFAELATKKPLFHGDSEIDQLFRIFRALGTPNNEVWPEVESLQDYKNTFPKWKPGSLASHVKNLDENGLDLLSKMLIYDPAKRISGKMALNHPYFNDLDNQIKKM
Sequence of CDK4/CyclinD3 (P11802 whole entry): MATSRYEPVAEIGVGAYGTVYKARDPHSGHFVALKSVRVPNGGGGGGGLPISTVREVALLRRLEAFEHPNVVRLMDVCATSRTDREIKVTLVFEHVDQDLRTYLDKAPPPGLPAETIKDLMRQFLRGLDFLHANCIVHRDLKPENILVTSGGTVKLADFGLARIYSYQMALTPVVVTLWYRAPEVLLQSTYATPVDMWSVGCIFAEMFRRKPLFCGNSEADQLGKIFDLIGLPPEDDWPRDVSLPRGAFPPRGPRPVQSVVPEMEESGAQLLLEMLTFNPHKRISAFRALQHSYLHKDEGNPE
Sequence of CDK4/CyclinD3 (P30281 whole entry partner): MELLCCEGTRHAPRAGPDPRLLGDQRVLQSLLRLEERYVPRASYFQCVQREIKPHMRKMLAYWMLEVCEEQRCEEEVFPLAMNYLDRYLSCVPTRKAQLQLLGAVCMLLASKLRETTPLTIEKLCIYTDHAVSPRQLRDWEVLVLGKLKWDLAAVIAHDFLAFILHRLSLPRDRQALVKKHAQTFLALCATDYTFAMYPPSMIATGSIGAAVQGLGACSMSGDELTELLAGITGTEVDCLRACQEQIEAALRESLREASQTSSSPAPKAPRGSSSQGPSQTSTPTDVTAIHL
Sequence of CDK6/CyclinD3 (Q00534 whole entry): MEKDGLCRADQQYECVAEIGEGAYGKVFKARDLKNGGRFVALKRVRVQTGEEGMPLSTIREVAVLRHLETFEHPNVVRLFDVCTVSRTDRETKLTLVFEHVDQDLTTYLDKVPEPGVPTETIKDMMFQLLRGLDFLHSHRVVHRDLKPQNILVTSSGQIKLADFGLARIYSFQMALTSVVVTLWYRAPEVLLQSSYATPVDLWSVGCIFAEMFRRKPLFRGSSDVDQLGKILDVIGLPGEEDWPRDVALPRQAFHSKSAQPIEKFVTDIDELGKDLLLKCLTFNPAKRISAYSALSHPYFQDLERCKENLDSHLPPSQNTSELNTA
Sequence of CDK6/CyclinD3 (P30281 whole entry partner): as the sequence (P30281 whole entry partner) above

selectivity vs CDK1 (CDK1/cyclinB1): 16 fold
SMILES: CNS(=O)(=O)c1ccc(Nc2ncc(C(F)(F)F)c([C@H]3CC[C@](C)(O)CC3)n2)c(C)c1 [Compound 4, trans-4-[[4-(4-Hydroxy-4-methyl-cyclohexyl)-5-(trifluoromethyl)pyrimidin-2-yl]amino]-N,3-dimethyl-benzenesulfonamide]

efflux ratio at 120 min, 1 μM (MDR1): > 30
solubility at 2 h (FaSSIF solubility): 153 µM (≈ 142 µg/mL)
Papp A→B at 120 min, 1 µM [2]: 1 ×10⁻⁶ cm/s
CLint scaled at 1 µM (Microsomal stability [3]): 79 mL/min/kg
CLint scaled at 1 µM (Microsomal stability [4]): < 21 mL/min/kg
DC50 (CDK2): 4.9 nM
logD at 1 h (LogD): 4.1
Vd (Rat PK): 15 L/kg
clearance (Rat PK): 59 mL/min/kg
half-life (Rat PK): 5.7 h
bioavailability (Rat PK): 1%
SMILES: Cc1cc(S(=O)(=O)NCCO[C@H]2CC[C@H](CN3CCC(c4ccc5c(c4)n(C)c(=O)n5C4CCC(=O)NC4=O)CC3)CC2)ccc1Nc1ncc(C(F)(F)F)c([C@H]2CC[C@@](C)(O)CC2)n1 (stereo partly shown) [Compound 8]

efflux ratio at 120 min, 1 μM (MDR1): 91
solubility at 2 h (FaSSIF solubility): 62 µM (≈ 59.5 µg/mL)
Papp A→B at 120 min, 1 µM [2]: 2.3 ×10⁻⁶ cm/s
CLint scaled at 1 µM (Microsomal stability [3]): 143 mL/min/kg
CLint scaled at 1 µM (Microsomal stability [4]): 25 mL/min/kg
DC50 (CDK2): 1 nM
logD at 1 h (LogD): 4.6
SMILES: [2H][C@@](C)(COC1CCC(CN2CCN(c3ccc4c(c3F)n(C)c(=O)n4C3CCC(=O)NC3=O)CC2)CC1)NS(=O)(=O)c1ccc(Nc2ncc(C(F)(F)F)c(N3CCC[C@](C)(O)C3)n2)c(C)c1 (stereo partly shown) [Compound 13]

CDK2/CRBN/degrader ternary complex normalized AUC (CDK2/CRBN): 10
SMILES: Cc1cc(S(=O)(=O)N[C@H]2CC[C@H](N3CCN(CC4CCN(c5cccc6c5n(C)c(=O)n6C5CCC(=O)NC5=O)CC4)CC3)CC2)ccc1Nc1ncc(C(F)(F)F)c(N2CCC[C@](C)(O)C2)n1 (stereo partly shown) [Compound 14]

CDK2/CRBN/degrader ternary complex normalized AUC (CDK2/CRBN): 9.5
SMILES: Cc1cc(S(=O)(=O)NC2CC(N3CCN(CC4CCN(c5cccc6c5n(C)c(=O)n6C5CCC(=O)NC5=O)CC4)CC3)C2)ccc1Nc1ncc(C(F)(F)F)c(N2CCC[C@](C)(O)C2)n1 (stereo partly shown) [Compound 15]

CDK2/CRBN/degrader ternary complex normalized AUC (CDK2/CRBN): 13
SMILES: Cc1cc(S(=O)(=O)N[C@]2(C)C[C@@H](N3CCN(CC4CCN(c5ccc6c(c5F)n(C)c(=O)n6C5CCC(=O)NC5=O)CC4)CC3)C2)ccc1Nc1ncc(C(F)(F)F)c(N2CCC[C@](C)(O)C2)n1 (stereo partly shown) [Compound 17]

CDK2/CRBN/degrader ternary complex normalized AUC (CDK2/CRBN): 27
SMILES: Cc1cc(S(=O)(=O)NC2CC(N3CCN(CC4CCN(c5cccc6c5n(C)c(=O)n6C5CCC(=O)NC5=O)CC4)C4(CC4)C3)C2)ccc1Nc1ncc(C(F)(F)F)c(N2CCC[C@](C)(O)C2)n1 (stereo partly shown) [Compound 19]

CDK2/CRBN/degrader ternary complex normalized AUC (CDK2/CRBN): 4.0
SMILES: Cc1cc(S(=O)(=O)NC2CC(N3CCN(CC4CCN(c5ccc(NC6CCC(=O)NC6=O)cc5C)CC4)CC3)C2)ccc1Nc1ncc(C(F)(F)F)c(N2CCC[C@](C)(O)C2)n1 (stereo partly shown) [Compound 21]

CDK2/CRBN/degrader ternary complex normalized AUC (CDK2/CRBN): 0
SMILES: Cc1cc(S(=O)(=O)N[C@H]2C[C@H](CN3CC(c4ccc(C5CCC(=O)NC5=O)c(Cl)c4)C3)C2)ccc1Nc1ncc(C(F)(F)F)c(N2CCC[C@](C)(O)C2)n1 (stereo partly shown) [Compound 22]

CDK2/CRBN/degrader ternary complex normalized AUC (CDK2/CRBN): 92
CYP3A4 inhibition (in words) (CYP3A4): time- and NADPH-dependent inhibition
SMILES: Cc1cc(S(=O)(=O)N[C@H]2CC[C@H](CN3CCN(c4ccc(C5CCC(=O)NC5=O)c(Cl)c4)CC3)CC2)ccc1Nc1ncc(C(F)(F)F)c(N2CCC[C@](C)(O)C2)n1 (stereo partly shown) [Compound 24]

CDK2/CRBN/degrader ternary complex normalized AUC (CDK2/CRBN): 35
SMILES: Cc1cc(S(=O)(=O)N[C@H]2CC[C@H](CN3CCN(c4ccc(NC5CCC(=O)NC5=O)cc4F)CC3)CC2)ccc1Nc1ncc(C(F)(F)F)c(N2CCC[C@](C)(O)C2)n1 (stereo partly shown) [Compound 27]

CDK2/CRBN/degrader ternary complex normalized AUC (CDK2/CRBN): 100
SMILES: Cc1cc(S(=O)(=O)N[C@H]2CC[C@H](CN3CCN(c4cccc(NC5CCC(=O)NC5=O)c4)CC3)CC2)ccc1Nc1ncc(C(F)(F)F)c(N2CCC[C@](C)(O)C2)n1 (stereo partly shown) [Compound 28]

IC50 (CYP3A4; [5]): > 10000 nM
IC50 (CYP3A4; [6]): > 10000 nM
SMILES: C[C@]1(O)CCCN(c2nc(Nc3ccc(S(=O)(=O)N[C@H]4CC[C@H](CN5CCN(c6ccc(C7CCC(=O)NC7=O)cc6F)CC5)CC4)cc3F)ncc2C(F)(F)F)C1 (stereo partly shown) [Compound 31]
kinomescan S(10) score [1]: 0

IC50 (CYP3A4; [5]): > 10000 nM
IC50 (CYP3A4; [6]): > 10000 nM
SMILES: C[C@]1(O)CCCN(c2nc(Nc3ccc(S(=O)(=O)N[C@H]4CC[C@H](CN5CCN(c6ccc(C7CCC(=O)NC7=O)cc6F)CC5)CC4)cc3Cl)ncc2C(F)(F)F)C1 (stereo partly shown) [Compound 32]
kinomescan S(10) score [1]: 0

The remaining lines, values behind:

SMILES: CNS(=O)(=O)c1ccc(Nc2ncc3cc(Cl)c(=O)n(C4CCCC4)c3n2)c(C)c1 [Compound 1]
selectivity over CDK6 (CDK6/CyclinD3): > 124 fold
selectivity over CDK4 (CDK4/CyclinD3): > 44 fold
kinases tested showing >90% inhibition versus control [1]: 18/403

SMILES: CNS(=O)(=O)c1ccc(Nc2ncc(C(F)(F)F)c([C@H]3CC[C@@](C)(O)CC3)n2)c(C)c1 [Compound 3]
selectivity vs CDK1 (CDK1/cyclinB1): 47 fold
kinases tested showing >90% inhibition versus control [1]: 2/403
selectivity vs CDK9 (CDK9/CyclinT1): > 357 fold

SMILES: CNS(=O)(=O)c1ccc(Nc2ncc(C(F)(F)F)c(N3CCC[C@](C)(O)C3)n2)c(C)c1 [Compound 7]
selectivity vs CDK1 (CDK1/cyclinB1): 42 fold
kinases tested showing >90% inhibition versus control [1]: 4/403
selectivity vs CDK9 (CDK9/CyclinT1): > 5000 fold

SMILES: Cc1cc(S(=O)(=O)NCCO[C@H]2CC[C@H](CN3CCC(c4ccc5c(c4F)n(C)c(=O)n5C4CCC(=O)NC4=O)CC3)CC2)ccc1Nc1ncc(C(F)(F)F)c([C@H]2CC[C@@](C)(O)CC2)n1 (stereo partly shown) [Compound 9]
efflux ratio at 120 min, 1 μM (MDR1): > 54
solubility at 2 h (FaSSIF solubility): 173 µM (≈ 163 µg/mL)
Papp A→B at 120 min, 1 µM [2]: 2 ×10⁻⁶ cm/s
CLint scaled at 1 µM (Microsomal stability [3]): 102 mL/min/kg
CLint scaled at 1 µM (Microsomal stability [4]): 26 mL/min/kg
DC50 (CDK2): 12 nM
logD at 1 h (LogD): 4.6
Vd (Rat PK): 11 L/kg
clearance (Rat PK): 45 mL/min/kg
half-life (Rat PK): 4.9 h
bioavailability (Rat PK): 5%

SMILES: Cc1cc(S(=O)(=O)NC2CC(N3CC[C@@H](OC4CN(c5cccc6c5n(C)c(=O)n6C5CCC(=O)NC5=O)C4)[C@H](F)C3)C2)ccc1Nc1ncc(C(F)(F)F)c(N2CCC[C@](C)(O)C2)n1 (stereo partly shown) [Compound 20]
CDK2/CRBN/degrader ternary complex normalized AUC (CDK2/CRBN): 7.9

SMILES: Cc1cc(S(=O)(=O)N[C@H]2C[C@H](CN3CCN(c4ccc(C5CCC(=O)NC5=O)c(Cl)c4)CC3)C2)ccc1Nc1ncc(C(F)(F)F)c(N2CCC[C@](C)(O)C2)n1 (stereo partly shown) [Compound 23]
CDK2/CRBN/degrader ternary complex normalized AUC (CDK2/CRBN): 4.8

SMILES: Cc1cc(S(=O)(=O)NC2CCC(CN3CCN(c4cccc(C5CCC(=O)NC5=O)c4)CC3)CC2)ccc1Nc1ncc(C(F)(F)F)c(N2CCC[C@](C)(O)C2)n1 (stereo partly shown) [Compound 26]
CDK2/CRBN/degrader ternary complex normalized AUC (CDK2/CRBN): 0

SMILES: Cc1cc(S(=O)(=O)N[C@H]2CC[C@H](CN3CCN(c4ccc(C5CCC(=O)NC5=O)cc4F)CC3)CC2)ccc1Nc1ncc(C(F)(F)F)c(N2CCC[C@](C)(O)C2)n1 (stereo partly shown) [Compound 29]
kinomescan S(10) score [1]: 0.007

SMILES: COCc1cc(C(=O)Nc2cc([C@H]3CC[C@@H](OC(=O)NC(C)C)C3)[nH]n2)n(C)n1 [PF-07104091, reference compound]
antitumor activity (HCC1569 tumor xenograft): stable disease (30 to −30% is stable disease (0% = Tumor Stasis))
day 28 %dTV (mean ± SEM) (HCC1569 tumor xenograft; HCC1569 xenograft mice): 4 ± 15%
